Laboratory results taken from patent US12378193B2, “Anti-arrhythmicity agents” (The Regents of the University of California, priority 2014, dated 2025).
Entries after “also recorded” stand apart in the source; their conditions may differ.

Assays:
[1] = test system: zebrafish tremblor (tre) embryos; assay: Cardiac performance (line-scan fractional shortening, heart rate) of tremblor embryos; format: in vivo
Experimental: (§1) Movies of GFP-labelled myl7:GFP hearts were taken at 30 frames per second. Line-scan analysis was performed along a line through the atria or the ventricles of these hearts (Nguyen et al., 2009, Drug Discovery Today: Disease Models 5). Fraction of shortening was deduced from the ratio of diastolic and systolic width and heart rate was determined by beats per minute. Cardiac parameters were analyzed in tremblor^tc318 and VDAC2^LA2256 at 2 dpf.

[2] = test system: wild type zebrafish embryos; assay: Cardiac performance (line-scan fractional shortening, heart rate) of wild type embryos; format: in vivo
Experimental: as §1

[3] = test system: zebrafish tremblor (tre) embryos; assay: Restoration of coordinated cardiac contractions in tre embryos; format: in vivo
Experimental: (§2) VDAC2 mRNA and morpholino antisense oligos (5′-[…]-3′) (Genetools) (SEQ ID NO: 9) were injected into one-cell stage embryos collected from crosses of tre^tc318 heterozygotes. Cardiac performance was analyzed by visual inspection on 1 dpf. The tre mutant embryos were identified either by observing the fibrillation phenotype at 2-3 dpf or by genotyping as previously described (Langenbacher et al., 2005).
(§3) Chemicals from a synthetic library (Castellano et al., 2007, J Am Chem Soc 129, 5843-5845; Choi et al., 2011, Development 138, 1173-1181; Cruz et al., 2011, Proc Natl Acad Sci USA 108, 6769-6774) and from Biomol International LP were screened for their ability to partially or completely restore persistent heartbeat in tre embryos. 12 embryos collected from crosses of tre^tc318 heterozygotes were raised in the presence of individual compounds at a concentration of 10 μM from 4 hpf (Choi et al., 2011). Cardiac function was analyzed by visual inspection at 1 and 2 dpf. The hearts of tre^tc318 embryos manifest a chaotic movement resembling cardiac fibrillation with intermittent contractions in rare occasion (Ebert et al., 2005; Langenbacher et al., 2005). Compounds that elicit persistent coordinated cardiac contractions were validated on large number of tre mutant embryos and NCX1h morphants (>500 embryos).

NCX1hMO injected embryos = assay: Restoration of coordinated cardiac contractions in NCX1h morpholino embryos; format: in vivo, zebrafish; settings: for embryos with coordinated contractions: VDAC2^zfn/zfn
Experimental: as §2, §3

[4] = test system: mouse embryonic stem cell-derived cardiomyocytes (mESC-CMs); assay: Ca2+ overload-induced irregular Ca2+ transients and contractions in mESC-CMs; format: cell-based; settings: 10 mM Ca2+ext + 10 μM efsevin
Experimental: The mouse E14Tg2a ESC and human H9 ESC line were cultured and differentiated as previously described (Blin et al., 2010, J Clin Invest 120, 1125-1139; Arshi et al., 2013, Sci Technol Adv Mater 2013, 025003). At day 10 of differentiation, beating mouse EBs were exposed to external solution containing 10 mM CaCl2 for 10 minutes before DMSO or efsevin (10 μM) treatment. Human EBs were differentiated for 15 days and treated with 5 mM CaCl2) for 10 minutes before DMSO or efsevin (5 μM) treatment. Images of beating EBs were acquired at a rate of 30 frames/sec and analyzed by motion-detection software. For calcium recording, the EBs were loaded with 10 μM fluo-4 AM in culture media for 30 minutes at 37° C. Line-scan analysis was performed and fluorescent signals were acquired by a Zeiss LSM510 confocal microscope.

HeLa cells = assay: Mitochondria Ca2+ uptake assay in HeLa cells; format: cell-based; settings: permeabilized cells, 1 μM efsevin, Rhod2
Experimental: HeLa cells were transfected with zebrafish VDAC2 using Lipofectamine™ 2000 (Invitrogen). 36 hrs after transfection, cells were loaded with 5 μM Rhod2-AM (Invitrogen), a Ca^2+ indicator preferentially localized in mitochondria, for 1 hour at 15° C. followed by a 30 min de-esterification period at 37° C. Subsequently, cells were permeabilized with 100 μM digitonin for 1 min at room temperature. Fluorescence changes in Rhod2 (ex: 544 nm, em: 590 nm) immediately after the addition of Ca^2+ (final free Ca^2+ concentration is calculated to be approximately 10 μM using WEBMAXC at http://web.stanford.edu/˜cpatton/webmaxcS.htm) were monitored in internal buffer (5 mM K-EGTA, 20 mM HEPES, 100 mM K-aspartate, 40 mM KCl, 1 mM MgCl2, 2 mM maleic acid, 2 mM glutamic acid, 5 mM pyruvic acid, 0.5 mM KH2PO4, 5 mM MgATP, pH adjusted to 7.2 with Trizma base) using a FLUOSTAR plate reader (BMG Labtech).

[5] = test system: murine ventricular cardiomyocytes; assay: Ca2+ imaging (transients, sparks, waves) in isolated cardiomyocytes; format: cell-based
Experimental: Murine ventricular cardiomyocytes were isolated as previously described (Reuter et al., 2004, J Physiol 554, 779-789). Cells were loaded with 5 μM fluo-4 AM in external solution containing: 138.2 mM NaCl, 4.6 mM KCl, 1.2 mM MgCl, 15 mM glucose, 20 mM HEPES for 1 hr and imaged in external solution supplemented with 2, 5 or 10 mM CaCl2). For the recording of Ca^2+ sparks and transients, the external solution contained 2 mM CaCl2. For Ca^2+ transients, cells were field stimulated at 0.5 Hz with a 5 ms pulse at a voltage of 20% above contraction threshold. For all measurements, efsevin was added 2 hours prior to the actual experiment. Images were recorded on a Zeiss LSM 5 Pascal confocal microscope. Data analysis was carried out using the Zeiss LSM Image Browser and ImageJ with the SparkMaster plugin (Picht et al., 2007, Am J Physiol Cell Physiol 293, C1073-1081). Cells were visually inspected prior to and after each recording. Only those recordings from healthy looking cells with distinct borders, uniform striations and no membrane blebs or granularity were included in the analysis.

[6] = efsevin treatment, NCX1MO embryos
[7] = paced at 0.5 Hz, % of vehicle-treated

CCOC(=O)C1=CCN(S(=O)(=O)c2ccc(C)cc2)C1c1ccccc1 (stereo not shown) [efsevin]
heart rate ([1]; efsevin-treated tre embryos): 46±2 beats per minute (bpm) | heart rate restored, relative to wild-type/controls ([1]; efsevin-treated tre embryos, 2 dpf, % of wild-type heart rate): approximately 40% | Atrial FS ([1]; tre + efsevin, 48 hpf): 33±2% | Ventricular FS ([1]; tre + efsevin, 48 hpf): 35±3% | cardiac performance of wild-type embryos ([2]; efsevin-treated wild-type embryo, 2 dpf): did not affect cardiac performance | heart rate ([2]; efsevin-treated wild-type embryos): 123±3 bpm | Atrial FS ([2]; wild type + efsevin, 48 hpf): 35±2% | Ventricular FS ([2]; wild type + efsevin, 48 hpf): 39±1% | embryos with coordinated cardiac contractions ([3]; efsevin treated tre embryos): 71.2±8.8% | embryos with coordinated contractions ([3]; efsevin treated tre embryos, VDAC1/2 knocked down simultaneously): 30.3±6.3% | embryos with coordinated contractions ([3]; efsevin treated tre embryos, morpholino knockdown of VDAC1 (MO^VDAC1)): 46.9±10.7% | embryos with coordinated contractions ([3]; efsevin treated tre embryos, morpholino knockdown of VDAC2 (MO^VDAC2)): 45.3±7.4% | restoration of rhythmic contractions in tremblor embryos ([3]; tremblor embryos): restored rhythmic contractions in the majority of tremblor embryos | embryos with coordinated cardiac contractions (NCX1hMO injected embryos; [6]): 76.2±8.7% | embryos with coordinated contractions (NCX1hMO injected embryos; [6]): 54.1±3.6% | embryos with coordinated contractions (NCX1hMO injected embryos; efsevin treatment, VDAC1MO, NCX1MO embryos): 35.7±7.1% | restoration of rhythmic contractions in NCX1hMO injected embryos (NCX1hMO injected embryos; linker-attached compounds): retained their ability to restore rhythmic contractions | rhythmic Ca2+ transients and contractions under Ca2+ overload [4]: restored rhythmic Ca2+ transients and cardiac contractions; also recorded: restores regular Ca^2+ transients | mitochondrial Ca2+ uptake after addition of Ca2+ (HeLa cells): increased mitochondrial Ca^2+ uptake | spontaneous Ca2+ waves spanning more than half of the entire cell ([5]; 1 μM efsevin): approximately half | spontaneous Ca2+ waves spanning more than half of the entire cell ([5]; 10 μM efsevin): further reduced | spontaneous Ca2+ waves spanning more than half of the entire cell ([5]; 25 μM efsevin): almost entirely blocked | decay phase of the single spark ([5]; % of vehicle-treated): 82.5±2.1% | maximum spark amplitude ([5]; % of vehicle-treated): 101.6±2.5% | total duration of the spark ([5]; % of vehicle-treated): 85.7±2% | total width of the spark ([5]; % of vehicle-treated): 89.5±1.4% | Ca2+ spark frequency ([5]; efsevin compared to vehicle-treated): 101.1±7.7% | Ca2+ transient rate of decay [5, 7]: 82.8±4% | Ca2+ transient time to peak [5, 7]: 95±3.9% | Ca2+ transient amplitude ([5]; paced at 0.5 Hz, efsevin-treated as % of vehicle-treated): 98.6±4.5% | Ca2+ release flux ([5]; sparks, % of vehicle-treated): 98.7±2.8%
